Values of other authors as cited in patent US20080318218A1, “Compositions and Methods for Inferring an Adverse Effect in Response to a Drug Treatment” (DNAPrint Genomics, Inc., priority 2004, published 2008).

How the values were obtained:
[1] = human, in vivo
[2] = clinical trials
[3] = system: NO synthase; conditions: ACE inhibitor-associated cough; P<0.01; not with placebo

CC(C)c1c(C(=O)Nc2ccccc2)c(-c2ccccc2)c(-c2ccc(F)cc2)n1CC[C@@H](O)C[C@@H](O)CC(=O)O [Atorvastatin]
patients exhibiting persistent and dose-dependent indications of hepatic stress (elevation in serum transaminase SGOT, ALTGPT) [1]: Approximately 0.7%

COCc1c(C(C)C)nc(C(C)C)c(/C=C/[C@@H](O)C[C@@H](O)CC(=O)O)c1-c1ccc(F)cc1 [Baycol, Cerivastatin]
patients experiencing muscle discomfort and/or creatine kinase elevations in response to treatment [2]: about 1%

[Fe] [iron]
cough scores [3]: significant reduction
